# Experimental data from US9505728B2, “Triazolone compounds and uses thereof” (INCEPTION 2, INC., priority 2012, dated 2016).
# Like-named read-outs stand apart in the source and are kept apart here.
# Tests used:
# Glucocorticoid Receptor = target: T1, Glucocorticoid Receptor (Homo sapiens, UniProt P04150); assay: Target selectivity counterscreen, Glucocorticoid Receptor reporter assay; format: cell-based; conditions: receptor agonist at ~EC80
# T1 construct: host or cells: engineered reporter cells of the kit
# T1 sequence (P04150 1-777): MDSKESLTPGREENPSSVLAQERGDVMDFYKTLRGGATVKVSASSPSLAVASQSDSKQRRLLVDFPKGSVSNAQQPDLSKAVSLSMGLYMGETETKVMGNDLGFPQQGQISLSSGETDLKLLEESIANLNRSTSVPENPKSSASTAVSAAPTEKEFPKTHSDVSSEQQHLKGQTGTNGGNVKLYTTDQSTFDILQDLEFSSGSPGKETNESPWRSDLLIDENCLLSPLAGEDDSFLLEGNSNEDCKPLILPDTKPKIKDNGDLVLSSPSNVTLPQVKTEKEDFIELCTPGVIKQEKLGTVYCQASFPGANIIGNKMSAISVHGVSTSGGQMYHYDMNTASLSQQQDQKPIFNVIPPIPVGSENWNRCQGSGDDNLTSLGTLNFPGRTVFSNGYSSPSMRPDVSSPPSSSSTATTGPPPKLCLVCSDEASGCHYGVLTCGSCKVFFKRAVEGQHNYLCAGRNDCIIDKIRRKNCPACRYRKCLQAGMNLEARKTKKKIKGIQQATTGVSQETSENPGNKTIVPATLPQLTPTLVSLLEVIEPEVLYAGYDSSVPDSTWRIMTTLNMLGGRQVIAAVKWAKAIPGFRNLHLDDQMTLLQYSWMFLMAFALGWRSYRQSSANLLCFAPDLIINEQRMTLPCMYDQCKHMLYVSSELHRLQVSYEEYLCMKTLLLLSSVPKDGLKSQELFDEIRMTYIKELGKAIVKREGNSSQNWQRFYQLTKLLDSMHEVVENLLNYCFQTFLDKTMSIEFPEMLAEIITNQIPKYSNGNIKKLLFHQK
# Experimental: (§1) Target Selectivity Assays
# (§2) To determine species selectivity, a Mouse PPARα Reporter Assay System was used (Indigo Biosciences, Cat. #M00111). Activity of test compounds to antagonize or agonize other isoforms of human PPAR, for example β/δ and γ, were assessed using the corresponding kits from Indigo Biosciences (Cat. #IB00121 and #IB00101, respectively). In addition to PPAR activity, compounds were also screened for activity against other nuclear hormone receptors including Estrogen Receptor β, Glucocorticoid Receptor and Thyroid Receptor β using commercially available kits (Indigo Biosciences, Cat. #IB00411, IB00201 and IB01101, respectively). Each assay system from Indigo Biosciences uses technology analogous to the human PPARα kit, with the variance being that the cells used for each assay were engineered to over-express the receptor of interest. In addition, the appropriate receptor agonist (included with each kit) was used at ˜EC80 for assays in which antagonist potency was being assessed.
# PPAR beta/delta = target: T2, PPAR beta/delta (Homo sapiens, UniProt Q03181); assay: Target selectivity counterscreen, PPAR β/δ reporter assay; format: cell-based; conditions: receptor agonist at ~EC80
# T2 construct: host or cells: engineered reporter cells of the kit
# T2 sequence (Q03181 1-441): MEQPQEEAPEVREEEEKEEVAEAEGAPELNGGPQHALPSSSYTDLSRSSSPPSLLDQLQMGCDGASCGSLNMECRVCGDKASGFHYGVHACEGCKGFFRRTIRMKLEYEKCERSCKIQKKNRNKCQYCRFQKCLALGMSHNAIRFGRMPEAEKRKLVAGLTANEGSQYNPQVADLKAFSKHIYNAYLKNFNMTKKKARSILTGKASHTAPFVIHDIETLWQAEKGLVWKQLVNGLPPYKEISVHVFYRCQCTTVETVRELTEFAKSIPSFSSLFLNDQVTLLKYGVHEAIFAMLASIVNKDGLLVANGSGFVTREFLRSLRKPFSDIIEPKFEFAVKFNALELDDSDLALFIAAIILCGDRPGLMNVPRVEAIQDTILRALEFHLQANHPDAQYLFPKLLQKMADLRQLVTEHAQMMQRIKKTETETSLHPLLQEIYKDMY
# Experimental: as §1, §2
# B16F10 melanoma cells = assay: In vivo cancer model: B16F10 model of pulmonary metastasis; set-up: species or system C57BL6 mice; conditions: intraperitoneal doses at 0.3, 3 and 30 mg/kg, daily, day 21, FIG. 1
# Experimental: In Vivo Cancer Model: B16F10 Model of Pulmonary Metastasis
# B16F10 cells were cultured in standard growth media, harvested when approximately 50% confluent and injected into C57BL6 mice via the tail vein (50,000 cells per mouse in 200 μL). Mice were then treated daily with test compound. On day 21, mice were euthanized. Lungs were harvested and placed into Fekete's solution overnight to facilitate visualization of the tumors. Black nodules were enumerated.
# Statistics were performed by ANOVA with Dunnett's Multiple Comparison Test post-hoc to determine statistical differences from vehicle treatment group (* denotes P<0.05 while *** denotes P<0.001).
# Human PPARα = target: T3, Human PPARα (Homo sapiens, UniProt Q07869); assay: Human PPARα Reporter Assay (luciferase); format: cell-based
# T3 construct: host or cells: proprietary non-human mammalian cells
# T3 sequence (Q07869 1-468): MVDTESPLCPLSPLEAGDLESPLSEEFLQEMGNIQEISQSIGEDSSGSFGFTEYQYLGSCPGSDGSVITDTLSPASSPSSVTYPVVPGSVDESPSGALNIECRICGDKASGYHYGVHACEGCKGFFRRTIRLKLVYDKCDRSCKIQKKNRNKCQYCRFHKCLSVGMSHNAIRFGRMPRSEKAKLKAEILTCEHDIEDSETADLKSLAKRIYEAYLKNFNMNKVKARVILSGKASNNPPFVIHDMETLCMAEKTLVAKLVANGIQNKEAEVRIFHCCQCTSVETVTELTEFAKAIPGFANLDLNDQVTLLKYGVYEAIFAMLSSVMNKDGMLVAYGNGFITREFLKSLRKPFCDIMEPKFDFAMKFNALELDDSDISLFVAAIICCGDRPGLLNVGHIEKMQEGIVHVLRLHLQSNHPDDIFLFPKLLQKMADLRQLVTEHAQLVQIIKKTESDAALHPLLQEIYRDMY
# In short: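 Agonist or antagonist activity read as luciferase light from engineered reporter cells carrying human PPARα and a responsive reporter gene. Cells got compound immediately on dispensing, incubated overnight, then treatment media swapped for luciferase detection reagent.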
# Estrogen Receptor β = target: T4, Estrogen Receptor β (Homo sapiens, UniProt Q92731); assay: Target selectivity counterscreen, Estrogen Receptor β reporter assay; format: cell-based; conditions: receptor agonist at ~EC80
# T4 construct: host or cells: engineered reporter cells of the kit
# Experimental: as §1, §2
# T4 sequence (Q92731 whole entry): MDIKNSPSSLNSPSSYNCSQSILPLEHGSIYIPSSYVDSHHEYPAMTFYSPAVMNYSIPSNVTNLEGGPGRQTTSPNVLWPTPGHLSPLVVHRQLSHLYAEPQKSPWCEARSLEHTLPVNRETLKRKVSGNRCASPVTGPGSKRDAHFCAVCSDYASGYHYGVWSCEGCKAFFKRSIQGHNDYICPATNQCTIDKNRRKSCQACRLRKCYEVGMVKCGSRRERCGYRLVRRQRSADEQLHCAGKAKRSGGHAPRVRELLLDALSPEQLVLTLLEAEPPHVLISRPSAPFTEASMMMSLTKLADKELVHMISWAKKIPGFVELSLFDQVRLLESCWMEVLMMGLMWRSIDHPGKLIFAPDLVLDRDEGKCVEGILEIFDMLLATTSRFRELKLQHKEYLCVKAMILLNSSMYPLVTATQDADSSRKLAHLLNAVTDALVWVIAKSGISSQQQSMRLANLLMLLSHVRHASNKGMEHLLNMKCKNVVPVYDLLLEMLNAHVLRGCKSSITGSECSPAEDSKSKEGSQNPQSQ
structure (smiles),measurement,setting,value
"CCn1c(CCCc2ccc(-c3ccc(NS(=O)(=O)c4ccccc4)cn3)cc2)nn(Cc2ccc(C(C)(C)C)cc2)c1=O [Example 10, N-(6-(4-(3-(1-(4-(tert-Butyl)benzyl)-4-ethyl-5-oxo-4,5-dihydro-1H-1,2,4-triazol-3-yl)propyl)phenyl)pyridin-3-yl)benzenesulfonamide]",IC50,Glucocorticoid Receptor,36.5 µM
same,IC50,PPAR beta/delta,2600 nM
same,metastasis of B16F10 melanoma cells to the lung (black nodules enumerated),B16F10 melanoma cells,inhibition of metastasis
same,IC50,"Human PPARα; counterscreen table, antagonist potency, read-out: PPAR alpha IC50",67 nM
same,IC50,"Human PPARα; human PPARα reporter cells, overnight incubation, antagonism, read-out: Luciferase IC50",67 nM
same,IC50,Estrogen Receptor β,11.4 µM
